Test system: MCF7 complex spheroid growth, % test/control
Assay: Anticancer human tumor MCF7 cell line growth inhibition [Asc];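 note: spheroids exposed to compounds for 7 days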;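 for viability, T/C: 100% = DMSO vehicle control wells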
Details: for IC50: curve of first compound; for viability, T/C: stronger effect = lower value
How it was run: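 Complex solid-tumor spheroids incorporating human endothelial and mesenchymal stem cells received single agents or combinations over half-log dilution ranges anchored to clinical Cmax.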

[1] = second compound 0.00316 µM, first compound 0.0316 µM
[2] = second compound 0.00316 µM, first compound 0.1 µM
[3] = second compound 0.00316 µM, first compound 0.316 µM
[4] = second compound 0.00316 µM, first compound 1 µM
[5] = second compound 0.01 µM, first compound 0.0316 µM
[6] = second compound 0.01 µM, first compound 0.1 µM
[7] = second compound 0.01 µM, first compound 0.316 µM
[8] = second compound 0.01 µM, first compound 1 µM
[9] = second compound 0.0316 µM, first compound 0.0316 µM
[10] = second compound 0.0316 µM, first compound 0.1 µM
[11] = second compound 0.0316 µM, first compound 0.316 µM
[12] = second compound 0.0316 µM, first compound 1 µM
[13] = second compound 0.1 µM, first compound 0.0316 µM
[14] = second compound 0.1 µM, first compound 0.1 µM
[15] = second compound 0.1 µM, first compound 0.316 µM
[16] = second compound 0.1 µM, first compound 1 µM
[17] = second compound 0.316 µM, first compound 0.0316 µM
[18] = second compound 0.316 µM, first compound 0.1 µM
[19] = second compound 0.316 µM, first compound 0.316 µM
[20] = second compound 0.316 µM, first compound 1 µM
[21] = second compound 1 µM, first compound 0.0316 µM
[22] = second compound 1 µM, first compound 0.1 µM
[23] = second compound 1 µM, first compound 0.316 µM
[24] = second compound 1 µM, first compound 1 µM
[25] = second compound 0.00316 µM, first compound 0.00316 µM
[26] = second compound 0.00316 µM, first compound 0.01 µM
[27] = second compound 0.01 µM, first compound 0.00316 µM
[28] = second compound 0.01 µM, first compound 0.01 µM
[29] = second compound 0.0316 µM, first compound 0.00316 µM
[30] = second compound 0.0316 µM, first compound 0.01 µM
[31] = second compound 0.1 µM, first compound 0.00316 µM
[32] = second compound 0.1 µM, first compound 0.01 µM
[33] = second compound 0.316 µM, first compound 0.00316 µM
[34] = second compound 0.316 µM, first compound 0.01 µM
[35] = second compound 1 µM, first compound 0.00316 µM
[36] = second compound 1 µM, first compound 0.01 µM

C=C(F)C(=O)N1CCN(c2nc(OCC3CCCN3C)nc3c2CCN(c2cccc4cccc(Cl)c24)C3)CC1CC#N (stereo unspecified) + CNC(C)C(=O)NC1CN(S(=O)(=O)c2cccc(S(=O)(=O)N3CCC4CCC(C(=O)NC(c5ccccc5)c5ccccc5)N4C(=O)C(NC(=O)C(C)NC)C3)c2)CCC2CCC(C(=O)NC(c3ccccc3)c3ccccc3)N2C1=O
IC50 (second compound 0.00316 µM): < 31.6 nM | IC50 (second compound 0.01 µM): < 31.6 nM | IC50 (second compound 0.0316 µM): < 31.6 nM | IC50 (second compound 0.1 µM): < 31.6 nM | IC50 (second compound 0.316 µM): < 31.6 nM | IC50 (second compound 1 µM): < 31.6 nM | viability, T/C [1]: 47.7% | viability, T/C [2]: 38.8% | viability, T/C [3]: 29.2% | viability, T/C [4]: 15.9% | viability, T/C (second compound 0.00316 µM, first compound 3.16 µM): 1.96% | viability, T/C (second compound 0.00316 µM, first compound 10 µM): 0.09% | viability, T/C [5]: 14% | viability, T/C [6]: 12% | viability, T/C [7]: 15% | viability, T/C [8]: 9.45% | viability, T/C (second compound 0.01 µM, first compound 3.16 µM): 2.95% | viability, T/C (second compound 0.01 µM, first compound 10 µM): 0.08% | viability, T/C [9]: 13.4% | viability, T/C [10]: 9.36% | viability, T/C [11]: 10.1% | viability, T/C [12]: 7.62% | viability, T/C (second compound 0.0316 µM, first compound 3.16 µM): 2.55% | viability, T/C (second compound 0.0316 µM, first compound 10 µM): 0.08% | viability, T/C [13]: 12% | viability, T/C [14]: 10.8% | viability, T/C [15]: 11% | viability, T/C [16]: 7.97% | viability, T/C (second compound 0.1 µM, first compound 3.16 µM): 1.68% | viability, T/C (second compound 0.1 µM, first compound 10 µM): 0.08% | viability, T/C [17]: 12% | viability, T/C [18]: 12% | viability, T/C [19]: 11.9% | viability, T/C [20]: 7.65% | viability, T/C (second compound 0.316 µM, first compound 3.16 µM): 2.03% | viability, T/C (second compound 0.316 µM, first compound 10 µM): 0.1% | viability, T/C [21]: 12.6% | viability, T/C [22]: 10.9% | viability, T/C [23]: 10.3% | viability, T/C [24]: 7.96% | viability, T/C (second compound 1 µM, first compound 3.16 µM): 1.41% | viability, T/C (second compound 1 µM, first compound 10 µM): 0.18%

O=C(c1ccc(F)c(F)c1Nc1ccc(I)cc1F)N1CC(O)([C@@H]2CCCCN2)C1 + CNC(C)C(=O)NC1CN(S(=O)(=O)c2cccc(S(=O)(=O)N3CCC4CCC(C(=O)NC(c5ccccc5)c5ccccc5)N4C(=O)C(NC(=O)C(C)NC)C3)c2)CCC2CCC(C(=O)NC(c3ccccc3)c3ccccc3)N2C1=O
IC50 (second compound 0.00316 µM): < 3.16 nM | IC50 (second compound 0.01 µM): < 3.16 nM | IC50 (second compound 0.0316 µM): < 3.16 nM | IC50 (second compound 0.1 µM): < 3.16 nM | IC50 (second compound 0.316 µM): < 3.16 nM | IC50 (second compound 1 µM): < 3.16 nM | viability, T/C [25]: 38.1% | viability, T/C [26]: 41.5% | viability, T/C [1]: 34.6% | viability, T/C [2]: 26% | viability, T/C [3]: 19.4% | viability, T/C [4]: 12.3% | viability, T/C [27]: 17.3% | viability, T/C [28]: 14.8% | viability, T/C [5]: 17.2% | viability, T/C [6]: 12.9% | viability, T/C [7]: 12.9% | viability, T/C [8]: 11.6% | viability, T/C [29]: 14.8% | viability, T/C [30]: 15.4% | viability, T/C [9]: 13.3% | viability, T/C [10]: 16.4% | viability, T/C [11]: 10.7% | viability, T/C [12]: 10.2% | viability, T/C [31]: 13.2% | viability, T/C [32]: 13.5% | viability, T/C [13]: 14.4% | viability, T/C [14]: 12.3% | viability, T/C [15]: 13.8% | viability, T/C [16]: 9.72% | viability, T/C [33]: 13.3% | viability, T/C [34]: 14.3% | viability, T/C [17]: 15.9% | viability, T/C [18]: 12.5% | viability, T/C [19]: 11.6% | viability, T/C [20]: 12.4% | viability, T/C [35]: 14.6% | viability, T/C [36]: 13.8% | viability, T/C [21]: 12.4% | viability, T/C [22]: 12.9% | viability, T/C [23]: 13% | viability, T/C [24]: 13.2%

Cn1ncnc1[C@H]1c2n[nH]c(=O)c3cc(F)cc(c23)N[C@@H]1c1ccc(F)cc1 + CNC(C)C(=O)NC1CN(S(=O)(=O)c2cccc(S(=O)(=O)N3CCC4CCC(C(=O)NC(c5ccccc5)c5ccccc5)N4C(=O)C(NC(=O)C(C)NC)C3)c2)CCC2CCC(C(=O)NC(c3ccccc3)c3ccccc3)N2C1=O
IC50 (second compound 0.00316 µM): < 0.316 nM | IC50 (second compound 0.01 µM): < 0.316 nM | IC50 (second compound 0.0316 µM): < 0.316 nM | IC50 (second compound 0.1 µM): < 0.316 nM | IC50 (second compound 0.316 µM): < 0.316 nM | IC50 (second compound 1 µM): < 0.316 nM | viability, T/C (second compound 0.00316 µM, first compound 0.000316 µM): 13.7% | viability, T/C (second compound 0.00316 µM, first compound 0.001 µM): 11.2% | viability, T/C [25]: 11.4% | viability, T/C [26]: 13.2% | viability, T/C [1]: 12.5% | viability, T/C [2]: 10.1% | viability, T/C (second compound 0.01 µM, first compound 0.000316 µM): 12.8% | viability, T/C (second compound 0.01 µM, first compound 0.001 µM): 12.4% | viability, T/C [27]: 14.8% | viability, T/C [28]: 12.8% | viability, T/C [5]: 12.4% | viability, T/C [6]: 12.7% | viability, T/C (second compound 0.0316 µM, first compound 0.000316 µM): 10.1% | viability, T/C (second compound 0.0316 µM, first compound 0.001 µM): 10.7% | viability, T/C [29]: 12.2% | viability, T/C [30]: 9.67% | viability, T/C [9]: 9.98% | viability, T/C [10]: 12.2% | viability, T/C (second compound 0.1 µM, first compound 0.000316 µM): 11.1% | viability, T/C (second compound 0.1 µM, first compound 0.001 µM): 14.1% | viability, T/C [31]: 11.7% | viability, T/C [32]: 11.5% | viability, T/C [13]: 10.3% | viability, T/C [14]: 11.4% | viability, T/C (second compound 0.316 µM, first compound 0.000316 µM): 10.9% | viability, T/C (second compound 0.316 µM, first compound 0.001 µM): 10.8% | viability, T/C [33]: 13% | viability, T/C [34]: 11.1% | viability, T/C [17]: 11.9% | viability, T/C [18]: 12.8% | viability, T/C (second compound 1 µM, first compound 0.000316 µM): 14.7% | viability, T/C (second compound 1 µM, first compound 0.001 µM): 13.5% | viability, T/C [35]: 12.3% | viability, T/C [36]: 12.8% | viability, T/C [21]: 9.82% | viability, T/C [22]: 13.9%

From PubChem BioAssay AID1963445 (Molecular Pharmacology Branch, DTP, NCI, 2024)
